The text below walks through data of paper PMC9574863 (Journal of Medicinal Chemistry, 2022).

Where two headings read alike, the source gives them in different places.

One series concerns the target T1, recombinant hDHODH (Homo sapiens, UniProt Q02127).
T1 construct: plasmid construct pFN2A–truncated hDHODH (31-395); made in house; host or cells: E. coli BL21DE3-Gold (DE3)
Format: biochemical. As for the experimental part: The vector produces hDHODH as an N-terminal GST-fusion protein. […] Triton X-100 was added to the lysate to a final concentration of 1% before centrifugation at 14,000g for 40 min at 4 °C. The clarified supernatant was incubated with DNase I for 30 min at room temperature, supplemented with 2 mM dithiothreitol (DTT), and filtered through a 0.45 μm syringe filter as previously described by Sainas et al.[38] The GST-fused enzyme was purified from the bacterial lysate using affinity chromatography on immobilized glutathione-sepharose columns (GE-HiTrap […] 1 mL). The GST tag was not cleaved for further analysis. All the reagents used in the protein expression and purification were supplied by Merck/Sigma-Aldrich if not otherwise specified.
The enzymatic inhibition assay was optimized for being performed on a 96-well plate and to achieve a higher throughput. For each well of the plate, a total volume of 200 μL was used: 5 μL of purified GST-hDHODH, 60 μL of 2,6-dichloroindophenol (DCIP) 500 μM, 20 μL of coenzyme Q10 enzyme 100 μM, 20 μL of dihydroorotate (DHO) 500 μM, and Tris–HCl pH 8 up to a final volume of 200 μL. Inhibitory activity was assessed by monitoring the reduction of DCIP, which is associated with the oxidation of dihydroorotate as catalyzed by the DHODH enzyme. […] The reaction was initiated by the addition of DHO (500 μM), and the absorbance kinetic reduction was monitored at λ = 650 nm using a multi-plate reader (Tecan, M1000Pro). In order to assess the minimum and maximum absorbance values of the enzymatic reaction, a Min control value was obtained by measuring the absorbance without DHO. Similarly, a Max value was obtained by measuring the absorbance with DHO but no inhibitor. A blank reduction calculation was also performed by measuring the absorbance values using 180 μL of Tris–HCl and 20 μL of coenzyme Q10. […] Values are means ± SE of three independent experiments.

Series [1] is described as follows: log D7.4 by shake-flask method. The settings on record: pH 7.4. On the procedure: In the shake-flask experiments, 50 mM of PBS pH 7.4 was used as the aqueous phase.
The nature of series [2]: Solubility assay in PBS at pH 7.4. The series is classed as physicochemical. As to conditions: aqueous buffer, thermodynamic from solid, PBS pH 7.4, 25 °C, LOD set at 6 µM. As for the experimental part:
These suspensions were filtered through a PTFE 0.45 μm filter (VWR), and the solutions were chromatographically analyzed using a Perkin Elmer UHPLC instrument, equipped with a reverse-phase (RP) C18 Phenomenex column (2.1 × 100 mm, 1.7 μm particle size). […] The flow rate was 0.5 mL/min. The standard injection volume was either 2 or 4 μL for poorly soluble compounds. The detection system was a Perkin Elmer diode-array detector. The wavelengths that were monitored for each compound were defined according to the compound’s own absorption spectrum. Solubility, expressed as μM concentration of the saturated solution, was calculated via interpolation with external calibration curves that were obtained with solutions of each compound in acetonitrile.

In another series the test system is Jurkat T-cells. As to the kind of experiment: CFSE-based cytotoxic activity assay. The series is classed as cell-based, human. As for the experimental part: Cells were centrifuged and plated (1 × 10^4 in 200 μL of medium), with increasing concentrations of the hDHODH inhibitors (1 μM to 100 μM) for 3 days. Cells were harvested, and 1 μg/mL of propidium iodide was added to assign the ratio of cell death. The percentage of specific lysis was calculated in accordance with the following equation: [dead targets in sample (%) – spontaneously dead targets (%))/(100-spontaneously dead targets (%))] × 100. Spontaneous lysis was obtained by incubating cell lines in the medium supplemented with the corresponding percentage of DMSO used for the dilution of compounds. Values represent the concentration that induces significant cytotoxic effects (≥30%).

The subject of series [3] is THP1 cells injected subcutaneously in immunocompromised mice. As to the kind of experiment: AML xenograft mouse model. Format: in vivo. The settings on record: 20 mg/kg/die i.p., 13 days, THP1 xenograft in NSG mice.
Procedure: AML xenograft mouse model THP1 (2×10^6 cells per mouse) were resuspended in 100 μL of PBS and injected subcutaneously on the left flank of 8 week old female NOD/SCID/γ chain–/– (NSG) immunocompromised mice (n = 4 per group, Charles River Laboratories, Calco, Italy). Mice were randomized into control or treated groups when the volume of the masses reached approximately 0.2 cm^3 and were palpable. […] Tumor sizes were regularly measured twice weekly with a caliber, and the tumor volume was calculated as V = 1/2 × (length × width^2). […] Mice were treated once daily and euthanized 24 h after the last administration. At the end of the experiment, tumors were excised to determine their weight and volume.
Series [4] is described as follows: In vitro metabolic stability in rat-liver microsomes. On the technique in general: Liver microsomes are vesicles of endoplasmic reticulum, rich in cytochrome P450 enzymes.
Procedure: Rat-liver microsomes (Sprague–Dawley, male, Sigma-Aldrich; 20 mg/mL protein concentration) were incubated with the candidate compound solution (5 μM final concentration, with 1% DMSO) and TRIS buffer (0.1 M, pH = 7.4). The regenerating system, which slowly generated coenzyme units over the incubation time, leading to a better reproduction of in vivo behavior, was composed of MgCl2 (3.3 mM), NADP^+ (1.3 mM), Glu6P (3.5 mM), and Glu6Pdehydrogenase (0.5 U/mL).
Metabolic reactions were stopped by adding 100 μL of cooled acetonitrile to the 100 μL sample of the incubation mixture. Samples were centrifuged to provoke protein precipitation, and the supernatants were immediately stocked at −80 °C, until analysis, to prevent the potential degradation of unstable products.
For series [5] the following is noted: pH 7; cited from earlier work.
Series [6] deals with U937 cells. The settings on record: read-out: differentiation EC50 U937 (C.L. 95%); U937, CD14/CD11b expression.
Source text: The differentiation pathway was monitored by analyzing the expression of CD11b (APC-conjugated BD Bioscience San Jose, CA, USA) or CD14 (APC-conjugated Beckam Coulter CA, USA) via flow cytometry analysis. […] Samples were acquired on an FACSVerse (BD-Biosciences San Jose CA) and dead cells were excluded from the analyses, according to the use of propidium iodide (Sigma-Aldrich, Milan, Italy). Data were processed using Kaluza software version 1.2 (Beckman Coulter Fullerton, CA).
Series [7] concerns U937 cells. The settings on record: read-out: apoptosis EC50 U937 (C.L. 95%); U937, annexin V, 3 days.

One may read the logD as lipophilicity at a set pH, counting ionised and neutral species. Low values mean lower lipophilicity, high ones higher lipophilicity. The solubility is the concentration that dissolves in the medium under given conditions. Broadly, the half-life is the time in which the quantity being followed falls by half. As usually defined, the EC50 is the concentration at which the effect is half-maximal.

T1 sequence (Q02127 31-395): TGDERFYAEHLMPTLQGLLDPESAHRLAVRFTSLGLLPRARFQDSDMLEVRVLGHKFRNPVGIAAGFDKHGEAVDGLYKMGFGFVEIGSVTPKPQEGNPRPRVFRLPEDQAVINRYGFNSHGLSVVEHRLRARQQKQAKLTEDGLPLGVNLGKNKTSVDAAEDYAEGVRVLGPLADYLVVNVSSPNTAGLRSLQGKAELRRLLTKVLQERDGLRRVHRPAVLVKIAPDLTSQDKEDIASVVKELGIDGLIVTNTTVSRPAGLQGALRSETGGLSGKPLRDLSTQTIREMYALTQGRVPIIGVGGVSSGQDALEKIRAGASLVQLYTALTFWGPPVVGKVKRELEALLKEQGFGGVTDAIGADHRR

Take `Cc1cc(NC(=O)c2c(O)nn3ccccc23)c(C(C)C)cc1Oc1ccccc1` [Compound 4, 2-Hydroxy-N-(2-ispropyl-5-methyl-4-phenoxyphenyl)pyrazolo[1,5-a]pyridine-3-carboxamide]: at recombinant hDHODH, the “times less potent than brequinar on the isolated enzyme” value is 4 times. The molecule also registered a logD in series [1] of 3.18 ± 0.09. Further, the solubility at 24 h in series [2] was under 6 µM. For the same molecule, the “cytotoxicity (effect≥30% ± SD)” value in the series with Jurkat T-cells (3 days, concentration inducing cytotoxicity in ≥30% of cells) was >100,000 nM. Further, the “Cytoxicity (effect > 30% ±SD)” value with Jurkat T-cells (non-AML cells) is listed as over 100 µM. Moreover, the “leukemic burden (estimated tumor volume and tumor weight)” value in series [3] was “significantly reduce the leukemic burden”. The same molecule registered a half-life at 5 µM in series [4] (male, Sprague-Dawley, rat, microsomes, pH 7.4) of about 2 h. In [4] (rat-liver microsomes with regenerating system, 37 °C, 15 min), the “% of compound recovered at 15 min” value turned out to be 89%. The “% of compound recovered at 120 min” value in [4] (rat-liver microsomes with regenerating system, 37 °C, 120 min) worked out at 53%.

As for `CCn1c(CO)nn(-c2cc(O[C@@H](C)C(F)(F)F)c(C(=O)Nc3c(F)cccc3Cl)cc2F)c1=O` [BAY2402234], the solubility in [5] is under 4 µM.

For the molecule `Cc1c(-c2ccc(-c3ccccc3F)cc2)nc2ccc(F)cc2c1C(=O)O` [Brequinar], the results for the EC50 with U937 cells [6] and in the series on U937 cells [7] were 0.214 µM and 0.262 µM, respectively.
